Article PMC10924921, “Mi-2β promotes immune evasion in melanoma by activating EZH2 methylation” (Nature Communications, 2024)

Columns and labels:
[1] = Tolerability: mouse weight and organ histology; format: in vivo; settings: 30 mg/kg/day for 2 weeks
Procedure: Z36-MP5 was chosen for further validation and experimental therapeutics in vivo. […] To investigate its cellular inhibitory activity, B16F10 cells were treated with Z36-MP5 at concentrations ranging from 5 to 100 µM, and the activation of Mi-2β target genes measured by RT-qPCR. […] In addition, the pharmacokinetic properties of Z36-MP5 in Sprague-Dawley rats with administration of intraperitoneal injection dose of 1.0 mg/kg. […] To exclude any effects on the host cells, we implanted Mi-2β-null melanoma cells into C57BL6 mice and then treated the mice with Z36-MP5 accompanied by anti-PD-1 therapy.
Supplementary Figure 8. In vitro assay for Mi-2β inhibitors. a The body weight changes of C57BL/6J mice treated with Z36-MP5 (30 mg/kg/day) for 2 weeks. Data are mean ± SEM (n=5). b H&E staining of tissues in C57BL/6J mice treated with or without Z36 -MP5 (30 mg/kg/day) for 2 weeks. […]
The growth of tumor grafts was measured. n = 5. g Mice bearing B16F10 cell s were treated with MS177 (100 mg/kg, 5 days) and then Z36 -MP5 (30 mg/kg/day) or vehicles, accompanied with anti -PD-1 antibody […]

[2] = target: T1, ABL1(Q252H)-phosphorylated (Homo sapiens, UniProt P00519, Q252H); test: biochemical; set-up: KINOMEscan active-site competition binding panel (468 kinase assays), per cent of control at 1000 nM; settings: KINOMEscan per cent of control (binding competition); read-out: Percent Control
T1 construct: phosphorylated
Text: (§1) Figure S7 / Percent Control

[3] = target: BMPR2 (Homo sapiens, UniProt Q13873); test: biochemical; set-up: KINOMEscan active-site competition binding panel (468 kinase assays), per cent of control at 1000 nM; settings: KINOMEscan per cent of control (binding competition); read-out: Percent Control
Text: as §1

[4] = target: T2, CDK4-cyclinD3 (Homo sapiens, UniProt P11802); test: biochemical; set-up: KINOMEscan active-site competition binding panel (468 kinase assays), per cent of control at 1000 nM; settings: KINOMEscan per cent of control (binding competition); read-out: Percent Control
T2 construct: cyclinD3
Text: as §1

[5] = target: CHEK2 (Homo sapiens, UniProt O96017); test: biochemical; set-up: KINOMEscan active-site competition binding panel (468 kinase assays), per cent of control at 1000 nM; settings: KINOMEscan per cent of control (binding competition); read-out: Percent Control
Text: as §1

[6] = target: T3, DCAMKL3 (Homo sapiens, UniProt Q9C098); test: biochemical; set-up: KINOMEscan active-site competition binding panel (468 kinase assays), per cent of control at 1000 nM; settings: KINOMEscan per cent of control (binding competition); read-out: Percent Control
T3 construct: gene DCLK3
Text: as §1

[7] = target: EPHA4 (Homo sapiens, UniProt P54764); test: biochemical; set-up: KINOMEscan active-site competition binding panel (468 kinase assays), per cent of control at 1000 nM; settings: KINOMEscan per cent of control (binding competition); read-out: Percent Control
Text: as §1

[8] = target: EPHB2 (Homo sapiens, UniProt P29323); test: biochemical; set-up: KINOMEscan active-site competition binding panel (468 kinase assays), per cent of control at 1000 nM; settings: KINOMEscan per cent of control (binding competition); read-out: Percent Control
Text: as §1

[9] = target: T4, ERK1 (Homo sapiens, UniProt P27361); test: biochemical; set-up: KINOMEscan active-site competition binding panel (468 kinase assays), per cent of control at 1000 nM; settings: KINOMEscan per cent of control (binding competition); read-out: Percent Control
T4 construct: gene MAPK3
Text: as §1

[10] = target: FGFR4 (Homo sapiens, UniProt P22455); test: biochemical; set-up: KINOMEscan active-site competition binding panel (468 kinase assays), per cent of control at 1000 nM; settings: KINOMEscan per cent of control (binding competition); read-out: Percent Control
Text: as §1

[11] = target: MAP3K2 (Homo sapiens, UniProt Q9Y2U5); test: biochemical; set-up: KINOMEscan active-site competition binding panel (468 kinase assays), per cent of control at 1000 nM; settings: KINOMEscan per cent of control (binding competition); read-out: Percent Control
Text: as §1

[12] = target: T5, MEK6 (Homo sapiens, UniProt P52564); test: biochemical; set-up: KINOMEscan active-site competition binding panel (468 kinase assays), per cent of control at 1000 nM; settings: KINOMEscan per cent of control (binding competition); read-out: Percent Control
T5 construct: gene MAP2K6
Text: as §1

[13] = target: MKNK2 (Homo sapiens, UniProt Q9HBH9); test: biochemical; set-up: KINOMEscan active-site competition binding panel (468 kinase assays), per cent of control at 1000 nM; settings: KINOMEscan per cent of control (binding competition); read-out: Percent Control
Text: as §1

[14] = target: MYO3A (Homo sapiens, UniProt Q8NEV4); test: biochemical; set-up: KINOMEscan active-site competition binding panel (468 kinase assays), per cent of control at 1000 nM; settings: KINOMEscan per cent of control (binding competition); read-out: Percent Control
Text: as §1

[15] = target: PHKG1 (Homo sapiens, UniProt Q16816); test: biochemical; set-up: KINOMEscan active-site competition binding panel (468 kinase assays), per cent of control at 1000 nM; settings: KINOMEscan per cent of control (binding competition); read-out: Percent Control
Text: as §1

[16] = target: PIKFYVE (Homo sapiens, UniProt Q9Y2I7); test: biochemical; set-up: KINOMEscan active-site competition binding panel (468 kinase assays), per cent of control at 1000 nM; settings: KINOMEscan per cent of control (binding competition); read-out: Percent Control
Text: as §1

[17] = target: PLK2 (Homo sapiens, UniProt Q9NYY3); test: biochemical; set-up: KINOMEscan active-site competition binding panel (468 kinase assays), per cent of control at 1000 nM; settings: KINOMEscan per cent of control (binding competition); read-out: Percent Control
Text: as §1

[18] = target: TGFBR2 (Homo sapiens, UniProt P37173); test: biochemical; set-up: KINOMEscan active-site competition binding panel (468 kinase assays), per cent of control at 1000 nM; settings: KINOMEscan per cent of control (binding competition); read-out: Percent Control
Text: as §1

[19] = target: T6, YANK1 (Homo sapiens, UniProt Q8WU08); test: biochemical; set-up: KINOMEscan active-site competition binding panel (468 kinase assays), per cent of control at 1000 nM; settings: KINOMEscan per cent of control (binding competition); read-out: Percent Control
T6 construct: gene STK32A
Text: as §1

T5 sequence (P52564 whole entry): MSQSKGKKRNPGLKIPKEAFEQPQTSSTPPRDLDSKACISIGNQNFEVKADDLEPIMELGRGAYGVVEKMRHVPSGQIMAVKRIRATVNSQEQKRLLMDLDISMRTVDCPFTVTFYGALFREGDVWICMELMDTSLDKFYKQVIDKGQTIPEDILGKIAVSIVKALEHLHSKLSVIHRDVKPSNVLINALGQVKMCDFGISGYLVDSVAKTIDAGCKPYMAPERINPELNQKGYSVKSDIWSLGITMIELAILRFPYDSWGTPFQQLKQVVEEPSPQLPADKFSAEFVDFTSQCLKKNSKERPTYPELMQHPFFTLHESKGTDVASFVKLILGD
Chain of EPHA4 (P54764 whole entry): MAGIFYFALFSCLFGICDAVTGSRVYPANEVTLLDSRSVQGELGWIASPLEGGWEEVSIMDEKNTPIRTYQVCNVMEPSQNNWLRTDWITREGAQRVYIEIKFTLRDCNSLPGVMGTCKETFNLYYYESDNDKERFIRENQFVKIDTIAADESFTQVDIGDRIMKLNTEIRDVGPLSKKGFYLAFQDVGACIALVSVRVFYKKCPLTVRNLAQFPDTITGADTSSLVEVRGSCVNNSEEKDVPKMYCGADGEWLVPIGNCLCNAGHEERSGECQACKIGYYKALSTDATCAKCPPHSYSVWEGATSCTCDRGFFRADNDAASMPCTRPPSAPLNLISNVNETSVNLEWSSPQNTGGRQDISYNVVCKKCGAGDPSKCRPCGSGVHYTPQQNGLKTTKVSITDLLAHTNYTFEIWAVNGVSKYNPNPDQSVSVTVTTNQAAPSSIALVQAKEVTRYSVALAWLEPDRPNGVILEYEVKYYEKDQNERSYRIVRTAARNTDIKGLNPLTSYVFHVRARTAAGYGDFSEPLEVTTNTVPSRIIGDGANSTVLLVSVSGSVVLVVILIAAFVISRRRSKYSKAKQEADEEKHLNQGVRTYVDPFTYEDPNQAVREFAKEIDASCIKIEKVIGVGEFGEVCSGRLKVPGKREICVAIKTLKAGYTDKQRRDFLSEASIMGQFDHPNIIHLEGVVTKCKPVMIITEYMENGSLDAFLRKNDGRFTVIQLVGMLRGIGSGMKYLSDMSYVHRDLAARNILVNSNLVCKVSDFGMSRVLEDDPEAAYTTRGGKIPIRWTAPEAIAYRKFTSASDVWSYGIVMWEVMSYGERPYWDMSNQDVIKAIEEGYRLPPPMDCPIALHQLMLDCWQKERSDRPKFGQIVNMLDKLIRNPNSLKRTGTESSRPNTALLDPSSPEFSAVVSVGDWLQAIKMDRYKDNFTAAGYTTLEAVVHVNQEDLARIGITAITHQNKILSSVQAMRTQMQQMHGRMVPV
Chain of PIKFYVE (Q9Y2I7 whole entry): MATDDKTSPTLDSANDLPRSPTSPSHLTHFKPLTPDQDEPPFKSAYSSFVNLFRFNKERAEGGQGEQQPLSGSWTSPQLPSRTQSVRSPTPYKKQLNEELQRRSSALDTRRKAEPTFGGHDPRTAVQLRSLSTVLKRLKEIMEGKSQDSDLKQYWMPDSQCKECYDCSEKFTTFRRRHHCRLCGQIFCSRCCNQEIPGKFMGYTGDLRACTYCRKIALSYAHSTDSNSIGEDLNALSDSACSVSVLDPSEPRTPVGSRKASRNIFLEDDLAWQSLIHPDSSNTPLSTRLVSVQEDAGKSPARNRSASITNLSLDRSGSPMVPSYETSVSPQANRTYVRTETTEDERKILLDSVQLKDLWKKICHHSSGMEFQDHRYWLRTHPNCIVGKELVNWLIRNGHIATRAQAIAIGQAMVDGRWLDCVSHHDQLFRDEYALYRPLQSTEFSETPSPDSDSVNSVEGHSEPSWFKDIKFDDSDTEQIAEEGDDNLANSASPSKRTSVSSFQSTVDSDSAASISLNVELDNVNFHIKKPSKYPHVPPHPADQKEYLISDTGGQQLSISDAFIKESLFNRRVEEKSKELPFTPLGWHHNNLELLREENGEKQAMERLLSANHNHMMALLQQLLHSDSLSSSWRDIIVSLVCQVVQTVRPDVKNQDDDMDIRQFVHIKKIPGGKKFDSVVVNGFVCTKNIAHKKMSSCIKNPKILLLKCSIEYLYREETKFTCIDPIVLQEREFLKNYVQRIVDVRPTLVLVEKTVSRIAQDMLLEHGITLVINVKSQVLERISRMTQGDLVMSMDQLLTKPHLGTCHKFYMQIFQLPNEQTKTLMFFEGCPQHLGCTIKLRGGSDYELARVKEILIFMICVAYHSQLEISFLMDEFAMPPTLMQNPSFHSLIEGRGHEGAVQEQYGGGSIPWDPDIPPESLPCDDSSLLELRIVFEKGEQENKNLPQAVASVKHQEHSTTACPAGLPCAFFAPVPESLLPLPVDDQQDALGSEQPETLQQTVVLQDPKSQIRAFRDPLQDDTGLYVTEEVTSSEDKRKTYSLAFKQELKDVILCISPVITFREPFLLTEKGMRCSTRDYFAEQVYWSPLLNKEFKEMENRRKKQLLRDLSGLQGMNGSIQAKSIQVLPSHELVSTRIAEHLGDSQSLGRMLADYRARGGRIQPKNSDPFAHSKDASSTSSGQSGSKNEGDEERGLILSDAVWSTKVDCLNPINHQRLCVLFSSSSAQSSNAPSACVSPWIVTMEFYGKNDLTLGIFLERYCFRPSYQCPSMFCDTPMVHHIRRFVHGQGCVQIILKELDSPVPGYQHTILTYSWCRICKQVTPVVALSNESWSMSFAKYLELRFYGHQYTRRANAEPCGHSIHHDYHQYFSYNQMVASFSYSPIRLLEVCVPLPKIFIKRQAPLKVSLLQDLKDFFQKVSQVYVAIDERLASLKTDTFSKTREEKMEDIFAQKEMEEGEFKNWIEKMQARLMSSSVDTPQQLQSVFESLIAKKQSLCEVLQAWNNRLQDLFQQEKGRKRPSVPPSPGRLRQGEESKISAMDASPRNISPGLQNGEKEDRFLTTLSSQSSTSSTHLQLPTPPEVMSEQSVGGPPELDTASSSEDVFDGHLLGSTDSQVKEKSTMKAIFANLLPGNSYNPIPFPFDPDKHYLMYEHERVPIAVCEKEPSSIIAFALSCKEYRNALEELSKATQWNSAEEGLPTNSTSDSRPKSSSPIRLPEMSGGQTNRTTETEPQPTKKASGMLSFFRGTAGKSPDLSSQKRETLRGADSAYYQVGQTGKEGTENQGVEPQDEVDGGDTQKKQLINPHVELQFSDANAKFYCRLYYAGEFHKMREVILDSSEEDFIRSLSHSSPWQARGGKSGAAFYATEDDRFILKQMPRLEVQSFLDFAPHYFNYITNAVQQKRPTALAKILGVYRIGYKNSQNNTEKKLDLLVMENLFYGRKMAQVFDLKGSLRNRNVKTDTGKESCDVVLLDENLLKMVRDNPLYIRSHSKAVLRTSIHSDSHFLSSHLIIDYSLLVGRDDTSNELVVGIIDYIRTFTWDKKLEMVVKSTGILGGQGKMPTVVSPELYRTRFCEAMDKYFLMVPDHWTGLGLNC
Chain of MKNK2 (Q9HBH9 whole entry): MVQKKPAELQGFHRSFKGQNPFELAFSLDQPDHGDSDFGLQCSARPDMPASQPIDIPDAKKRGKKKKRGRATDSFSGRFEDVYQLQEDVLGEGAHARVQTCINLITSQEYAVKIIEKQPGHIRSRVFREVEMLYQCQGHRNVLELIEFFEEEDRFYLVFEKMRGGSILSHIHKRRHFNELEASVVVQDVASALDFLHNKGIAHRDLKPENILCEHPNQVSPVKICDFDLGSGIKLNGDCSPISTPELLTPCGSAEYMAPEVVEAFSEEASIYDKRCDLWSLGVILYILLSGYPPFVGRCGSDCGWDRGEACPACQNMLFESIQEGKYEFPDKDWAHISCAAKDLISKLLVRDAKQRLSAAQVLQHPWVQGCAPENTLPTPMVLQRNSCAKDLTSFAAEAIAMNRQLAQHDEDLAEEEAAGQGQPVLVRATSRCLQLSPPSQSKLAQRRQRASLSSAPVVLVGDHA
Chain of MAP3K2 (Q9Y2U5 whole entry): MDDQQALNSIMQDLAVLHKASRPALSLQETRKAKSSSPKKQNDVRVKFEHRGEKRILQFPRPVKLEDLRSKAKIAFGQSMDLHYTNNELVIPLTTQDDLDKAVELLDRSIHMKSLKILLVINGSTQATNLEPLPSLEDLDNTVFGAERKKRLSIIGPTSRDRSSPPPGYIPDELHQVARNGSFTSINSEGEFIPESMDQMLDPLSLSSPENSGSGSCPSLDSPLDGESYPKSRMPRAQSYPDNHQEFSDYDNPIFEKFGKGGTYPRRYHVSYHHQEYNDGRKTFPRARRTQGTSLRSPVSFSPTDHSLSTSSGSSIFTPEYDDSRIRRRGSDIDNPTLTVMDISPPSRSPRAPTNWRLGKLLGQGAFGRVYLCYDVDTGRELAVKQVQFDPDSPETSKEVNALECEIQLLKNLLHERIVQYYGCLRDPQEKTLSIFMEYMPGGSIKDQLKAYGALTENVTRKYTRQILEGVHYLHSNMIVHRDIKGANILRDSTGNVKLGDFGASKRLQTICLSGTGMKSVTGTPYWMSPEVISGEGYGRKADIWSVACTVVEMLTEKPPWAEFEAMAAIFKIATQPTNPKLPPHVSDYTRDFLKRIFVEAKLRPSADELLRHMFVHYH
Chain of CHEK2 (O96017 whole entry): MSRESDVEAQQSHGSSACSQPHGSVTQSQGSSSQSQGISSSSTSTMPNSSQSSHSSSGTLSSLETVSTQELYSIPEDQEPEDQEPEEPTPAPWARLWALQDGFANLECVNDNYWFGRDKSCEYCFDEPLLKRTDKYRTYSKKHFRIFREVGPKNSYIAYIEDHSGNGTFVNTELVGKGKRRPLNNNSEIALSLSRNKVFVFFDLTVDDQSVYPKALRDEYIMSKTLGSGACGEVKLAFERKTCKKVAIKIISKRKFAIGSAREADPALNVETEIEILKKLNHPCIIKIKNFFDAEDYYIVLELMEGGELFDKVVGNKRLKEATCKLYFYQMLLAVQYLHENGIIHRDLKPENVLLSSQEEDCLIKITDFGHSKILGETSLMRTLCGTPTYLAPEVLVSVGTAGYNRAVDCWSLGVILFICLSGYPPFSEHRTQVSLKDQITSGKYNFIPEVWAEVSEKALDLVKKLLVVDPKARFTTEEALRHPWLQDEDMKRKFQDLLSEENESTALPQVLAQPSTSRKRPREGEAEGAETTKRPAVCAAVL

Structure (SMILES): Cn1c(=O)[nH]c2ccc(-c3cccc(C(=O)NC4CCn5ccnc5C4)c3)cc21 (stereo not shown) [Z36-MP5]
- tolerability (mouse weight, organ tissue histological staining) [1]: tolerated without significant toxicity
- remaining binding at 1 µM [2]: 69%
- remaining binding at 1 µM [3]: 62%
- remaining binding at 1 µM [4]: 54%
- remaining binding at 1 µM [5]: 58%
- remaining binding at 1 µM [6]: 92%
- remaining binding at 1 µM [7]: 58%
- remaining binding at 1 µM [8]: 70%
- remaining binding at 1 µM [9]: 98%
- remaining binding at 1 µM [10]: 76%
- remaining binding at 1 µM [11]: 65%
- remaining binding at 1 µM [12]: 99%
- remaining binding at 1 µM [13]: 82%
- remaining binding at 1 µM [14]: 100%
- remaining binding at 1 µM [15]: 90%
- remaining binding at 1 µM [16]: 96%
- remaining binding at 1 µM [17]: 55%
- remaining binding at 1 µM [18]: 94%
- remaining binding at 1 µM [19]: 95%
